Data reported in patent publication US11304956B2, “Use of 7-bromo-5-(O-chlorophenyl)-3-propoxy-1,2-dihydro-3H-1,4-benzodiazepin-2-one for inhibition of neuropathic pain and seizures of different etiology” (priority 2016, dated 2022).

Columns and labels:
[1] = system: thermal tail flick test in rats; assay: Model of thermal stimulation (tail-flick); format: in vivo; conditions: n=10
Text: The problem was solved by experimental study of the antinociceptive action of the test compound 1 on the model of NP in rats and on the model of pain with the participation of central mechanisms, in particular, thermal tail flick test in rats. Based on the available data on the positive response of constant pain to anticonvulsants in the acute and paroxysmal phase and considering structure 1, we performed an evaluation of the anticonvulsant action of the compound on models of pentamethylenetetrazol-induced convulsions and seizures caused by maximal electroshock (MES). We have taken into account the possible side reaction (ulcerogenic effect) of the compound in experimental animals, expressed in the formation of defects in the mucous membrane of the gastrointestinal tract or in provocation of already existing peptic ulcer relapses. The probability of ulcers formation of medicinal origin is especially high during administration of non-steroidal anti-inflammatory drugs in high doses and in combination with their long-term use in the form of tablets.
A more pronounced effect was after parenteral administration (see Table 2). Control: solvent (twin, distilled water, pH-corrector). Results of the study of Compound 1 and ketorolac analgesic effects on the model of thermal stimulation (tail-flick) as degree of pain sensitivity threshold increase in relation to the initial level (%), n=10, are given in Table 2.

[2] = system: formalin test in mice; assay: Formalin test (licking time of the injected paw); format: in vivo, white male non-linear mice; conditions: for I phase, % effect (decrease in the time of licking of the paw): phase 0-5 min; for II phase, effect (decrease in the time of licking of the paw): phase 15-40 min
[3] = system: gastric mucosa; assay: Ulcerogenic effect, acute experiment (single intragastric dose); format: in vivo, rats; conditions: 3 hours; for Average score: 4-score scale; for Multiplicity of damage: number of ulcers per animal
Method: (§1) The disadvantage of most analgesics is the fact that they have ulcerogenic effect that interferes with their long-term use. We have studied this side effect of Compound 1 in acute and subchronic experiments. In the first scheme, the compound in the form of an aqueous suspension (Tween-80) was administered in single dose intragastrically to rats, which had previously been deprived of food for 16 hours with free access to water. After 3 hours, the animals were euthanized with a cervical dislocation, then, after dissection of the abdominal cavity, stomachs were ejected and washed in isotonic sodium chloride solution to take out the contents. Damage of stomach was determined visually. In the second scheme, the compound was administered intragastrically for 4 days, after that the extent of the damaging effect on the stomach was determined, as in the previous experiment.
(§2) Evaluation of ulcerogenic action was carried out on a 4-score scale:
(§3) 0 score—no damage; 0.5 score—hyperemia (blood vessels overflow)
(§4) 1 score—single minor lesions (1-3 point hemorrhages or small ulcers)
(§5) 2 score—multiple (more than 3) lesions (erosions, pinpoint hemorrhages) or 1 large ulcer
(§6) 3 score—significant and massive damages (erosions, hemorrhages) of the gastric mucosa with significant size (diameter up to 4 mm)
(§7) 4 score—gross injuries (massive hemorrhages, erosions, perforations) that cover the entire surface of the gastric mucosa.
(§8) The average multiplicity index of damage to the gastric mucosa (the number of ulcers per animal) and the severity of the damage (in scores) were determined.
(§9) Compound 1 was administered over a wide dose range—in acute studies—50, 250, 500 and 1000 mg/kg. For the subchronic experiment, the compound was used at a dose of 50 mg/kg.

[4] = system: gastric mucosa; assay: Ulcerogenic effect, subchronic experiment (4 days intragastric); format: in vivo, rats; conditions: 50 mg/kg intragastrically for 4 days
Method: as §1, §2, §3, §4, §5, §6, §7, §8, §9
We also determined the indexes of gastrotoxicity of gastric mucosa under conditions of repeated intragastral administration (for 4 days at a dose of 50 mg/kg). […] The average severity in this group was of 1.4±0.27 score, and the multiplicity was of 1.9±0.64 ulcers per animal. This also indicates the absence of a gastrotoxic effect of this compound on the stomach.

[5] = ED50 by analgesic effect (preliminary studies / literature data); format: in vivo; conditions: according to preliminary studies
Method: After oral administration of Compound 1 and ketorolac at a dose of 3 mg/kg (which is ED50 according to the literature data for ketorolac), the degree of analgesic effect of the compound exceeded the effect of reference drug both by strength and duration.
To determine the safety of this compound in a chronic trial during long-term administration, it was administered to rats for 28 days at a dose close to ED50 by analgesic effect (0.5 mg/kg).

[6] = 0.01 mg/kg intraperitoneally 40 min before formalin
[7] = 0.10 mg/kg intraperitoneally 40 min before formalin
[8] = 3.00 mg/kg intraperitoneally 40 min before formalin
[9] = 50 mg/kg single intragastric dose
[10] = 250 mg/kg single intragastric dose
[11] = 500 mg/kg single intragastric dose
[12] = 1000 mg/kg single intragastric dose

For CCCOC1N=C(c2ccccc2Cl)c2cc(Br)ccc2NC1=O (stereo not drawn) [Compound 1, 7-bromo-5-(o-chlorophenyl)-3-propoxy-1,2-dihydro-3H-1,4-benzodiazepin-2-one], the “Degree of pain sensitivity threshold increase in relation to the initial level” value ([1]; 0.5 mg/kg intraperitoneally, 1 hour) was “+27.4%”, the “Degree of pain sensitivity threshold increase in relation to the initial level” value ([1]; 0.5 mg/kg intraperitoneally, 2 hours) was “+38.4%” and the “Degree of pain sensitivity threshold increase in relation to the initial level” value ([1]; 0.5 mg/kg intraperitoneally, 4 hours) was “+42.3%”. For the same compound, the “Degree of pain sensitivity threshold increase in relation to the initial level” value ([1]; 0.5 mg/kg intraperitoneally, 6 hours) was “+34.9%”, the “Degree of pain sensitivity threshold increase in relation to the initial level” value ([1]; 0.5 mg/kg orally, 1 hour) was “+13.2%” and the “Degree of pain sensitivity threshold increase in relation to the initial level” value ([1]; 0.5 mg/kg orally, 2 hours) was “+22.4%”. For the same compound, the “Degree of pain sensitivity threshold increase in relation to the initial level” value ([1]; 0.5 mg/kg orally, 4 hours) was “+21.7%”, the “Degree of pain sensitivity threshold increase in relation to the initial level” value ([1]; 0.5 mg/kg orally, 6 hours) was “+8.77%” and the “Degree of pain sensitivity threshold increase in relation to the initial level” value ([1]; 3 mg/kg orally, 1 hour) was “+60.7%”. For the same compound, the “Degree of pain sensitivity threshold increase in relation to the initial level” value ([1]; 3 mg/kg orally, 2 hours) was “+83.3%”, the “Degree of pain sensitivity threshold increase in relation to the initial level” value ([1]; 3 mg/kg orally, 4 hours) was “+65.2%” and the “Degree of pain sensitivity threshold increase in relation to the initial level” value ([1]; 3 mg/kg orally, 6 hours) was “+39.4%”. The “I phase, % effect (decrease in the time of licking of the paw)” value [2, 6] was 15.00 ± 4.11%, the “II phase, effect (decrease in the time of licking of the paw)” value [2, 6] was 32.10 ± 10.10 and the “I phase, % effect (decrease in the time of licking of the paw)” value [2, 7] was 76.00 ± 6.50 %. For the same compound, the “II phase, effect (decrease in the time of licking of the paw)” value [2, 7] was 54.00 ± 8.60, the “I phase, % effect (decrease in the time of licking of the paw)” value [2, 8] was 91.10 ± 18.80 % and the “II phase, effect (decrease in the time of licking of the paw)” value [2, 8] was 98.4 ± 15.0. For the same compound, the “Activity in the first phase relative to diclofenac sodium” value ([2]; Compound 1 at 0.1 mg/kg vs diclofenac sodium at 10 mg/kg, first phase) was 1.5 times, the “Number of animals with lesions of the gastric mucosa, score 1” value (“Number of animals with lesions … score 1” for short) [3, 9] was 3 and the “Number of animals with lesions of the gastric mucosa, score 2” value (shortened to “Number of animals with lesions … score 2”) [3, 9] was 0. The “Number of animals with lesions of the gastric mucosa, score 3” value (“Number of animals with lesions … score 3” below) [3, 9] was 0, the “Number of animals with lesions of the gastric mucosa, score 4” value (from here on “Number of animals with lesions … score 4”) [3, 9] was 0 and the Average score [3, 9] was 0.2 ± 0.13. For the same compound, the Multiplicity of damage [3, 9] was 0.5 ± 0.34, the “Number of animals with lesions … score 1” value [3, 10] was 5 and the “Number of animals with lesions … score 2” value [3, 10] was 2. For the same compound, the “Number of animals with lesions … score 3” value [3, 10] was 0, the “Number of animals with lesions … score 4” value [3, 10] was 0 and the Average score [3, 10] was 0.8 ± 0.25. For the same compound, the Multiplicity of damage [3, 10] was 0.9 ± 0.31, the “Number of animals with lesions … score 1” value [3, 11] was 7 and the “Number of animals with lesions … score 2” value [3, 11] was 3. For the same compound, the “Number of animals with lesions … score 3” value [3, 11] was 0, the “Number of animals with lesions … score 4” value [3, 11] was 0 and the Average score [3, 11] was 1.0 ± 0.21. For the same compound, the Multiplicity of damage [3, 11] was 1.2 ± 0.25, the “Number of animals with lesions … score 1” value [3, 12] was 8 and the “Number of animals with lesions … score 2” value [3, 12] was 3. For the same compound, the “Number of animals with lesions … score 3” value [3, 12] was 0, the “Number of animals with lesions … score 4” value [3, 12] was 0 and the Average score [3, 12] was 1.3±0.21. For the same compound, the Multiplicity of damage [3, 12] was 2.0 ± 0.37, the “Macroscopic examination of the gastric mucosa” value [4] was “insignificant decrease in the folding of the gastric mucosa and a rather distinct decrease in the amount of mucus” and the Multiplicity ([4]; n=10) was 1.9±0.64 ulcers per animal. The “Number of animals with lesions … score 1” value ([4]; n=10) was 6, the “Number of animals with lesions … score 2” value ([4]; n=10) was 5 and the “Number of animals with lesions … score 3” value ([4]; n=10) was 0. For the same compound, the “Number of animals with lesions … score 4” value ([4]; n=10) was 0, the Average severity ([4]; n=10, 4-score scale) was 1.4±0.27 score and the ED50 [5] was 0.5 mg/kg.
